In general, inhibition refers to how much of the control response was suppressed. As usually defined, the IC50 is the midpoint of a concentration-inhibition curve. High values mean weaker potency in that assay, low ones greater potency in that assay.

Bounds are passed on as bounds.

The source of these data is patent US6153634A, “4,5-azolo-oxindoles” (Hoffmann-La Roche Inc., priority 1999, dated 2000).

The target of one assay is T1, human Cyclin E/CDK2 (Homo sapiens, UniProt P24941).
T1 construct: made in house; host or cells: insect cells
Description: CDK2 FlashPlate Assay (inhibition of Rb phosphorylation). It is filed as biochemical. As to conditions: Concentration 0.5 μM; Cyclin E/CDK2, Rb-coated FlashPlates. Here is the method:
To determine inhibition of CDK2 activity, purified recombinant retinoblastoma (Rb) protein was coated on 96 well FlashPlates (New England Nuclear, Boston, Mass.). Rb is a natural substrate for phosphorylation by CDK2 (Herwig and Strauss Eurr. J. Biochem., Vol. 246 (1997) pp. 581-601 and references therein). Recombinant active human Cyclin E/CDK2 complexes were partially purified from extracts of insect cells. The active Cyclin E/CDK2 was added to the Rb-coated FlashPlates along with ^33 P-ATP and dilutions of test compounds. Plates were incubated for 25 minutes at room temperature with shaking, then washed and counted in the Topcount scintillation counter (Packard Instrument Co., Downers Grove, Ill.). Dilutions of test compounds were tested in duplicate in each assay. The percent inhibition of Rb phosphorylation, which is a measure of the inhibition of CDK2 activity, was determined according to the following formula: [formula] where "test compound" refers to the average counts per minute of the test duplicates, "nonspecific" refers to the average counts per minute when no Cyclin E/CDK2 was added, and "total" refers to the average counts per minute when no compound was added.
Consider `COc1cc[nH]c1/C=C1\C(=O)Nc2ccc3[nH]c(Nc4cccc(C(C)=O)c4)nc3c21` [BB, (Z)-2-[N-(3-Acetylphenyl)amino]-8-[(3-methoxy-1H-pyrrol-2-yl)methylene]-3,6,7,8-tetrahydro-pyrrolo[3,2-e]benzimidazol-7-one], for which the inhibition at 0.5 µM was less than 50%. On the same count and under the same terms, in the case of `CCOC(=O)c1ccc(Nc2nc3c4c(ccc3[nH]2)NC(=O)/C4=C\c2[nH]ccc2OC)cc1` [CC, (Z)-4-[[8-[(3-Methoxy-1H-pyrrol-2-yl)methylene]-7-oxo-3,6,7,8-tetrahydro-imidazo[4,5-e]indol-2-yl]amino]-benzoic acid ethyl ester] it was less than 50%. On the same count and under the same terms, in the case of `COC(=O)c1ccc(Nc2nc3c4c(ccc3[nH]2)NC(=O)/C4=C\c2[nH]ccc2OC)cc1` [EE, (Z)-4-[[8-[(3-Methoxy-1H-pyrrol-2-yl)methylene]-7-oxo-3,6,7,8-tetrahydro-imidazo[4,5-e]indol-2-yl]amino]-benzoic acid methyl ester] it was less than 50%; in that of `COc1cc[nH]c1/C=C1\C(=O)Nc2ccc3[nH]c(NCc4ccc(F)cc4)nc3c21` [FF, (Z)-2-[N-[(4-Fluorophenyl)methyl]amino]-8-[(3-methoxy-1H-pyrrol-2-yl)methylene]-3,6,7,8-tetrahydro-pyrrolo[3,2-e]benzimidazol-7-one], greater than 50%. In the case of `COc1ccc(CCNc2nc3c4c(ccc3[nH]2)NC(=O)/C4=C\c2[nH]ccc2OC)cc1OC` [GG, (Z)-2-[N-[2-(3,4-Dimethoxyphenyl)ethyl]amino]-8-[(3-methoxy-1H-pyrrol-2-yl)methylene]-3,6,7,8-tetrahydro-pyrrolo[3,2-e]benzimidazol-7-one], the inhibition at 0.5 µM is less than 50%.

Turning to `COc1ccccc1Nc1nc2c3c(ccc2[nH]1)NC(=O)/C3=C\c1[nH]ccc1OC` [II, (Z)-2-[N-(2-Methoxyphenyl)amino]-8-[(3-methoxy-1H-pyrrol-2-yl)methylene]-3,6,7,8-tetrahydro-pyrrolo[3,2-e]benzimidazol-7-one], the inhibition at 0.5 µM was less than 50%. On the same count and under the same terms, with `COc1cc[nH]c1/C=C1\C(=O)Nc2ccc3[nH]c(NCCCCc4ccccc4)nc3c21` [JJ, (Z)-8-[(3-Methoxy-1H-pyrrol-2-yl)methylene]-2-[N-(4-phenylbutyl)amino]-3,6,7,8-tetrahydro-pyrrolo[3,2-e]benzimidazol-7-one] the figure was less than 50%; with `CCOC(=O)CCCNc1nc2c3c(ccc2[nH]1)NC(=O)/C3=C\c1[nH]ccc1OC` [LL, (Z)-4-[[8-[(3-Methoxy-1H-pyrrol-2-yl)methylene]-7-oxo-3,6,7,8-tetrahydro-imidazo[4,5-e]indol-2-yl]amino]-butanoic acid ethyl ester], greater than 50%; with `COc1cc[nH]c1/C=C1\C(=O)Nc2ccc([N+](=O)[O-])c(N=[N+]=[N-])c21` [M, (Z)-4-Azido-1,3-dihydro-3-[(3-methoxy-1H-pyrrol-2-yl)methylene]-5-nitro-2H-indol-2-one], greater than 50%. The same measure, in the same setting: in the case of `COc1cc[nH]c1/C=C1\C(=O)Nc2ccc3[nH]c(Nc4cccc5ccccc45)nc3c21` [MM, (Z)-8-[(3-Methoxy-1H-pyrrol-2-yl)methylene]-2-[N-(1-naphthyl)amino]-3,6,7,8-tetrahydro-pyrrolo[3,2-e]benzimidazol-7-one] it was greater than 50%; in that of `COc1cc[nH]c1/C=C1\C(=O)Nc2ccc3[nH]c(NCCN4CCCCC4)nc3c21` [NN, (Z)-8-[(3-Methoxy-1H-pyrrol-2-yl)methylene]-2-[N-[2-(N-piperidinyl)ethyl]-amino]-3,6,7,8-tetrahydro-pyrrolo[3,2-e]benzimidazol-7-one], greater than 50%; in that of `COc1cc[nH]c1/C=C1\C(=O)Nc2ccc3[nH]c(NCc4ccc5c(c4)OCO5)nc3c21` [VV, (Z)-2-[N-(1,3-Benzodioxol-5-yl)methylamino]-8-[(3-methoxy-1H-pyrrol-2-yl)methylene]-3,6,7,8-tetrahydro-pyrrolo[3,2-e]benzimidazol-7-one], less than 50%.

Consider `COc1cc[nH]c1/C=C1\C(=O)Nc2ccc3[nH]c(NCc4cccc5ccccc45)nc3c21` [WW, (Z)-8-[(3-Methoxy-1H-pyrrol-2-yl)methylene]-2-[N-(1-naphthalenyl)methylamino]-3,6,7,8-tetrahydro-pyrrolo[3,2-e]benzimidazol-7-one], for which the inhibition at 0.5 µM was less than 50%. The same measure, in the same setting: in the case of `COc1cc[nH]c1/C=C1\C(=O)Nc2ccc3[nH]c(NCCCc4ccccc4)nc3c21` [XX, (Z)-8-[(3-Methoxy-1H-pyrrol-2-yl)methylene]-2-[N-(3-phenylpropyl)amino]-3,6,7,8-tetrahydro-pyrrolo[3,2-e]benzimidazol-7-one] it was less than 50%; in that of `COc1ccc(Nc2nc3c4c(ccc3[nH]2)NC(=O)/C4=C\c2[nH]ccc2OC)cc1OC` [Y, (Z)-2-[N-(3,4-Dimethoxyphenyl)amino]-8-[(3-methoxy-1H-pyrrol-2-yl)methylene]-3,6,7,8-tetrahydro-pyrrolo[3,2-e]benzimidazol-7-one], less than 50%. Same read-out and setting: with `COc1cc[nH]c1/C=C1\C(=O)Nc2ccc3[nH]c(Nc4ccc5c(c4)CCC5)nc3c21` [YY, (Z)-2-[N-(2,3-Dihydro-1H-inden-5-yl)amino]-8-[(3-methoxy-1H-pyrrol-2-yl)methylene]-3,6,7,8-tetrahydro-pyrrolo[3,2-e]benzimidazol-7-one] the figure was less than 50%; with `COc1ccc(Nc2nc3c4c(ccc3[nH]2)NC(=O)/C4=C\c2[nH]ccc2OC)cc1` [Z, (Z)-2-[N-(4-Methoxyphenyl)amino]-8-[(3-methoxy-1H-pyrrol-2-yl)methylene]-3,6,7,8-tetrahydro-pyrrolo[3,2-e]benzimidazol-7-one], less than 50%.

Still in this assay, the particulars now being: Cyclin E/CDK2, Rb-coated FlashPlates, 33P-ATP, 25 min room temperature.
Compound `COc1cc[nH]c1/C=C1\C(=O)Nc2ccc3[nH]c(-c4ccc(C(=O)O)cc4)nc3c21` [R] registered an IC50 of less than 3.5 µM.

A further assay deals with MDA-MB-435. Briefly: Cell-based antiproliferative (MTT) assay, MDA-MB-435 breast carcinoma. As to conditions: Homo sapiens, MDA-MB-435, 120 h, cell line MDA-MB435 (breast), 5 days post addition, one experiment mostly, average where repeated. The method, then:
The estrogen receptor negative epithelial breast carcinoma line (MDA-MB-435) was purchased from American Type Cell Culture Collection (ATCC; Rockville, Md.) and was grown in the medium recommended by ATCC. For analysis of the effect of the test compounds on growth of these cells, the cells were plated at 2000 cells per well in a 96-well tissue culture plate, and were incubated overnight at 37° C. with 5% CO2. The next day, the test compounds were dissolved in 100% dimethyl sulfoxide (DMSO) to yield a 10 mM stock solution. Each compound was diluted with sterile medium to 1 mM in a sufficient quantity to yield a final concentration of 120 μM. The compounds were then serially diluted in medium with 1.2% DMSO. […] The plates were returned to the incubator, and 5 days post addition of test compound, were analyzed as described below. […] Absorbencies were read in a microtiter plate reader (Molecular Dynamics) at a wavelength of 570 nm with a 650 nm reference. Percent inhibition was calculated by subtracting the absorbance of the blank (no cell) wells from all wells, then subtracting the division of the average absorbance of each test duplicate by the average of the controls from 1.00. Inhibitory concentrations (IC50) were determined from the linear regression of a plot of the logarithm of the concentration versus the percent inhibition.
`Cc1nc[nH]c1/C=C1\C(=O)Nc2ccc3[nH]cnc3c21` [SS, (Z)-8-[(4-Methyl-1H-imidazol-5-yl)methylene]-3,6,7,8-tetrahydro-pyrrolo[3,2-e]benzimidazol-7-one]: the IC50 is less than 3.5 µM.
